Reference: ChEMBL document CHEMBL1144362, “Synthesis and biological evaluation of novel 1,4-naphthoquinone derivatives as antibacterial and antiviral agents” (2005)
In brackets after ≈: the same amount, converted by molar mass.

What was measured:
Escherichia coli = experiment: Minimum inhibitory concentration gainst Escherichia coli by broth microdilution technique; format: functional
Enterococcus faecalis = experiment: Minimum inhibitory concentration gainst Streptococcus faecalis by broth microdilution technique; format: functional
Klebsiella pneumoniae = experiment: Minimum inhibitory concentration gainst Klebsiella pneumoniae by broth microdilution technique; format: functional
Pseudomonas aeruginosa = experiment: Minimum inhibitory concentration gainst Pseudomonas aeruginosa by broth microdilution technique; format: functional
Staphylococcus aureus = experiment: Minimum inhibitory concentration gainst Staphylococcus aureus by broth microdilution technique; format: functional
[1] = Antiviral activity against poliovirus type 2 infected HeLa cells; control=55; format: functional, Poliovirus type2
[2] = Antiviral activity against poliovirus type 2 infected HeLa cells; format: functional, Poliovirus type2

| Compound | MIC (Escherichia coli) [µg/mL] | MIC (Enterococcus faecalis) [µg/mL] | MIC (Klebsiella pneumoniae) [µg/mL] | MIC (Pseudomonas aeruginosa) [µg/mL] | MIC (Staphylococcus aureus) [µg/mL] | DPM [1] | DPM [2] |
| --- | --- | --- | --- | --- | --- | --- | --- |
| O=C(CSC1=CC(=O)c2ccccc2C1=O)Nc1cccc2ccccc12 | 12.5 (≈ 33.5 µM) | 12.5 (≈ 33.5 µM) | 25 (≈ 66.9 µM) | > 50 | > 50 | – | – |
| COc1ccc(NC(=O)C(C)SC2=CC(=O)c3ccccc3C2=O)cc1 (stereo not given) | 50 (≈ 136 µM) | > 50 | > 50 | > 50 | 25 (≈ 68 µM) | – | – |
| CC(SC1=CC(=O)c2ccccc2C1=O)C(=O)O (stereo not given) | 50 (≈ 191 µM) | 50 (≈ 191 µM) | 50 (≈ 191 µM) | > 50 | 25 (≈ 95.3 µM) | – | – |
| O=C(O)CSC1=CC(=O)c2c(O)ccc(O)c2C1=O | > 50 | > 50 | > 50 | > 50 | > 50 | – | – |
| Oc1ccc(O)c2c1SCCS2 | > 50 | > 50 | > 50 | > 50 | > 50 | – | – |
| COc1ccc(NC(=O)CSC2=CC(=O)c3ccccc3C2=O)cc1 | 12.5 (≈ 35.4 µM) | 6.25 (≈ 17.7 µM) | 6.25 (≈ 17.7 µM) | 50 (≈ 141 µM) | 25 (≈ 70.7 µM) | – | – |
| CC(SC1=CC(=O)c2ccccc2C1=O)C(=O)Nc1ccc([N+](=O)[O-])cc1 (stereo not given) | 50 (≈ 131 µM) | 50 (≈ 131 µM) | > 50 | > 50 | 25 (≈ 65.4 µM) | – | – |
| O=C1C2=C(SCCS2)C(=O)c2ccccc21 | > 50 | > 50 | > 50 | 50 (≈ 201 µM) | > 50 | – | – |
| O=C1C=CC(=O)c2c(Cl)ccc(O)c21 | – | – | – | – | – | 375 | – |
| Cc1ccccc1NC(=O)C(C)SC1=CC(=O)c2ccccc2C1=O (stereo not given) | > 50 | > 50 | > 50 | > 50 | > 50 | – | – |
| COc1ccccc1NC(=O)C(C)SC1=CC(=O)c2ccccc2C1=O (stereo not given) | > 50 | > 50 | 12.5 (≈ 34 µM) | > 50 | > 50 | – | – |
| O=C1C=CC(=O)c2c(O)c3c(c(O)c21)SCCS3 | > 50 | > 50 | > 50 | > 50 | > 50 | – | – |
| Cc1ccc(NC(=O)C(C)SC2=CC(=O)c3ccccc3C2=O)cc1 (stereo not given) | > 50 | > 50 | > 50 | > 50 | > 50 | – | – |
| COc1ccccc1NC(=O)CSC1=CC(=O)c2ccccc2C1=O | 6.25 (≈ 17.7 µM) | > 12.5 | 25 (≈ 70.7 µM) | > 50 | > 50 | – | – |
| Cc1ccccc1NC(=O)CSC1=CC(=O)c2ccccc2C1=O | 50 (≈ 148 µM) | 50 (≈ 148 µM) | > 50 | > 50 | 12.5 (≈ 37 µM) | – | – |
| CC(SC1=C(O)C(=O)c2ccccc2C1=O)C(=O)O (stereo not given) | 50 (≈ 180 µM) | 50 (≈ 180 µM) | 50 (≈ 180 µM) | > 50 | 50 (≈ 180 µM) | – | – |
| Cc1cccc(NC(=O)C(C)SC2=CC(=O)c3ccccc3C2=O)c1 (stereo not given) | > 50 | > 50 | > 50 | > 50 | > 50 | – | – |
| CC(SC1=CC(=O)c2ccccc2C1=O)C(=O)Nc1cccc2ccccc12 (stereo not given) | > 50 | > 50 | > 50 | 50 (≈ 129 µM) | > 50 | – | – |
| CC(SC1=CC(=O)c2ccccc2C1=O)C(=O)Nc1ccccc1 (stereo not given) | 6.25 (≈ 18.5 µM) | 12.5 (≈ 37 µM) | > 50 | > 50 | 25 (≈ 74.1 µM) | – | – |
| O=C(CSC1=CC(=O)c2ccccc2C1=O)Nc1ccc([N+](=O)[O-])cc1 | 6.25 (≈ 17 µM) | 12.5 (≈ 33.9 µM) | > 50 | > 50 | 25 (≈ 67.9 µM) | – | – |
| CC1=C(SC(C)C(=O)O)C(=O)c2ccccc2C1=O (stereo not given) | 50 (≈ 181 µM) | 50 (≈ 181 µM) | > 50 | > 50 | 25 (≈ 90.5 µM) | – | – |
| O=C(CSC1=CC(=O)c2ccccc2C1=O)Nc1ccccc1 | 50 (≈ 155 µM) | 50 (≈ 155 µM) | 50 (≈ 155 µM) | > 50 | 12.5 (≈ 38.7 µM) | – | – |
| O=C(O)CSC1=CC(=O)c2ccccc2C1=O | – | – | – | – | – | – | 675 |
| O=C1CSc2c3c(c4ccccc4c2O1)OC(=O)CS3 | > 50 | > 50 | 25 (≈ 82.1 µM) | > 50 | > 50 | – | – |
| GENTAMICIN | – | – | 0.39 | 0.78 | 0.78 | – | – |
| CC(SC1=CC(=O)c2c(O)ccc(O)c2C1=O)C(=O)O (stereo not given) | 50 (≈ 170 µM) | 25 (≈ 85 µM) | 50 (≈ 170 µM) | > 50 | > 50 | – | – |
